Converted amounts (≈) assume the structure as drawn.
Key:
[1] = test system: L1210 (mouse leukemia cell); test: In vitro antitumor effects against animal leukemia cells (dye exclusion assay), L1210; assay type: cell-based; conditions: Mus musculus, L1210, 48 h, 50% cell growth inhibition, 37° C., trypan blue, read-out: ED50 (the source's name)
Protocol: L1210(mouse leukemia cell)
(§1) B. Method of Experiment(Dye Exclusion Assay)
(§2) 2) Sample drugs diluted with log dose were added into the cells, and it were cultured at 37° C., for 48 hours, in […] incubater, and then viable cell number was measured, Viable cell number was measured with dye exclusion test using trypan blue.

[2] = test system: P388 (mouse lymphoid neoplasma cell); test: In vitro antitumor effects against animal leukemia cells (dye exclusion assay), P388; assay type: cell-based; conditions: Mus musculus, P388, 48 h, 50% cell growth inhibition, 37° C., trypan blue, read-out: ED50 (the source's name)
Protocol: P388 (mouse lymphoid neoplasma cell)
as §1, §2

[3] = test system: 5 kinds of human solid cancer cell lines; test: In vitro antitumor activity against 5 human solid cancer cell lines compared with cisplatin (SRB assay); assay type: cell-based; conditions: in words
Protocol: Antitumor activities of the compounds of present invention were tested. Antitumor activities of compounds of the present invention were tested in vitro against 5 kinds of human tumor cell lines and 2 kinds of leukemia tumor cell lines. The method of in vitro test is as follows.
B. Method of test(SRB Assay Method)
a. Human solid tumor cell lines, […](non-small lung cell), SKMEL-2(melanoma), HCT-15(colon), SKOV-3(ovarian), XF-498(CNS) were cultured at 37° C., in 5% CO2 incubater using the RPMI 1640 media containing 10% FBS, while they were transfer-cultured successively once or twice per week. Cell cultures were dissolved into the solution of 0.25% trypsin and 3 mM CDTA PBS(-) and then cells were separated from media which the cells were sticked on.
b. 5×10^3 -2×10^4 cells were added into each well of 96-well plate and cultured in 5% CO2 incubater, at 37° C., for 24 hours.
c. Each sample drugs was dissolved in a small quantity of DMSO, and diluted to concentrations prescribed in experiment with media, and then the final concentration of DMSO was controlled below 0.5%.
d. A medium of each well cultured for 24 hours as above b., was removed by aspiration. 200 μl of drug samples prepared in c. was added into each well and the wells were cultured for 48 hours. Tz(time zero) plates were collected at the point of time drugs were added.
e. After Tz plates and plates were treated with cell fixing by TCA of SRB assay method, staining of 0.4% SRB solution, washing with 1% acetic acid, OD values were measured at 520 nm, following elution of dye with 10 mM Tris solution.
e. If T≥Tz, cellular response function was calculated with 100×(T-Tz)/(C-Tz), and if T<Tz, with 100×(T-Tz)/Tz.

[4] = test system: L1210 and P388 mouse cancer cells; test: In vitro antitumor activity against L1210 and P388 compared with mitomycin C (dye exclusion assay); assay type: cell-based; conditions: in words
Protocol: as §1
1) L-1210 and P388 cells that were cultured in RPMI 1640 media containing 10% FBS were regulated as the cell concentration of 1×10^6 cells/ml.
as §2
3) The concentration of sample compounds of 50% cell growth inhibition compared with standard group was determined as IC50.

ICR mice = test: Acute toxicity test (LD50), Litchfield-Wilcoxon method; assay type: in vivo, mouse; set-up: unit not given here; conditions: male ICR mice, 14 days

IC50 [1] [µg/mL] | IC50 [2] [µg/mL] | Compound | antitumor activities compared with cisplatin [3] | antitumor activities compared with mitomycin C [4] | LD50 (ICR mice; i.p.) | LD50 (ICR mice; p.o.)
1.7 (≈ 4.35 µM) | 1.6 (≈ 4.1 µM) | CCc1cc(NC(=O)N2CCN(c3cc(F)cc(F)c3)CC2)c(OC)nc1C [Example 13, 1-[(5-ethyl-2-methoxy-6-methylpyridine-3-yl)aminocarbonyl]-4-(3,5-difluorophenyl)piperazine] | superior antitumor activities to those of cisplatin | same or more excellent antitumor activities |  | 
 |  | CCc1cc(NC(=O)N2CCN(c3cccc(C)c3C)CC2)c(OC)nc1C [Example 28, 1-[(5-ethyl-2-methoxy-6-methylpyridin-3-yl)aminocarbonyl]-4-(2,3-dimethylphenyl)piperazine] | superior antitumor activities to those of cisplatin |  | > 1,800 | > 2,000
1.4 (≈ 3.78 µM) | 1 (≈ 2.7 µM) | CCc1cc(NC(=O)N2CCN(c3cccc(O)c3)CC2)c(OC)nc1C [Example 38, 1-[(5-ethyl-2-methoxy-6-methylpyridin-3-yl)aminocarbonyl]-4-(3-hydroxyphenyl)piperazine] | superior antitumor activities to those of cisplatin | same or more excellent antitumor activities |  | 
0.3 (≈ 0.753 µM) | 0.3 (≈ 0.753 µM) | CCc1cc(NC(=O)N2CCN(c3cc(C)ccc3OC)CC2)c(OC)nc1C [Example 47, 1-[(5-ethyl-2-methoxy-6-methylpyridin-3-yl)aminocarbonyl]-4-(2-methoxy-5-methylphenyl)piperazine] | superior antitumor activities to those of cisplatin | same or more excellent antitumor activities |  | 
1.9 (≈ 4.77 µM) | 1.8 (≈ 4.52 µM) | CCc1cc(NC(=O)N2CCN(c3cc(OC)ccc3C)CC2)c(OC)nc1C [Example 48, 1-[(5-ethyl-2-methoxy-6-methylpyridin-3-yl)aminocarbonyl]-4-(5-methoxy-2-methylphenyl)piperazine] | superior antitumor activities to those of cisplatin | same or more excellent antitumor activities |  | 
1.3 (≈ 3.1 µM) | 0.6 (≈ 1.43 µM) | CCc1cc(NC(=O)N2CCN(c3cc(Cl)ccc3OC)CC2)c(OC)nc1C [Example 49, 1-[(5-ethyl-2-methoxy-6-methylpyridin-3-yl)aminocarbonyl]-4-(5-chloro-2-methioxyphenyl)piperazine] | superior antitumor activities to those of cisplatin | same or more excellent antitumor activities |  | 
2 (≈ 4.77 µM) | 1.5 (≈ 3.58 µM) | CCc1cc(NC(=O)N2CCN(c3cc(OC)ccc3Cl)CC2)c(OC)nc1C [Example 50, 1-[(5-ethyl-2-methoxy-6-methylpyridin-3-yl)aminocarbonyl]-4-(2-chloro-5-methoxyphenyl)piperazine] | superior antitumor activities to those of cisplatin |  |  | 
 |  | CCc1cc(NC(=O)N2CCN(c3cccc(O)c3C)CC2)c(OC)nc1C [Example 55, 1-[(5-ethyl-2-methoxy-6-methylpyridin-3-yl)aminocarbonyl]-4-(3-hydroxy-2-methylphenyl)piperazine] | superior antitumor activities to those of cisplatin |  |  | 
 |  | CCc1cc(CNC(=O)N2CCN(c3ccccc3F)CC2)c(OC)nc1C [Example 61] | superior antitumor activities to those of cisplatin |  | > 1,687 | 
 |  | CCc1cc(NC(=O)N2CCN(c3cccc(Cl)c3)CC2)c(NC)nc1C [Example 91] | superior antitumor activities to those of cisplatin |  |  | 
 |  | CCc1cc(NC(=S)N2CCN(c3cc(OC)cc(OC)c3)CC2)c(OC)nc1C [Example 100, 1-[(5-ethyl-2-methoxy-6-methylpyridin-3-yl)aminothiocarbonyl]-4-(3,5-dimethoxyphenyl)piperazine] | superior antitumor activities to those of cisplatin |  |  | 
 |  | COc1nc(C)c(C)cc1NC(=O)N1CCN(c2cccc(Cl)c2)CC1 [Example 109, 1-[(5,6-dimethyl-2-methoxypyridin-3-yl)aminocarbonyl]-4-(3-chlorophenyl)piperazine] | superior antitumor activities to those of cisplatin |  | 2,000 | > 2,073
 |  | COc1nc(C)c(C)cc1NC(=O)N1CCN(c2cc(F)cc(F)c2)CC1 [Example 111, 1-[(5,6-dimethyl-2-methoxypyridin-3-yl)aminocarbonyl]-4-(3,5-difluorophenyl)piperazine] | superior antitumor activities to those of cisplatin |  |  | 
 |  | COc1nc(C)c(C)cc1NC(=O)N1CCN(c2cccc(O)c2)CC1 [Example 113] | superior antitumor activities to those of cisplatin |  |  | 
 |  | COc1nc(C)c(C)cc1NC(=O)N1CCN(c2cccc(OC(C)=O)c2)CC1 [Example 115, 1-[(5,6-dimethyl-2-methoxypyridin-3-yl)aminocarbonyl]-4-(3-acetoxyphenyl)piperazine] | superior antitumor activities to those of cisplatin |  |  | 
2.2 (≈ 5.97 µM) | 2 (≈ 5.43 µM) | COc1nc(C)c(C)cc1NC(=O)N1CCN(c2cccc(C)c2C)CC1 [Example 119, 1-[(5,6-dimethyl-2-methoxypyridin-3-yl)aminocarbonyl]-4-(2,3-xylyl)piperazine] | superior antitumor activities to those of cisplatin |  |  | 
0.3 (≈ 0.814 µM) | 0.1 (≈ 0.271 µM) | COc1nc(C)c(C)cc1NC(=O)N1CCN(c2cc(C)cc(C)c2)CC1 [Example 120, 1-[(5,6-dimethyl-2-methoxypyridin-3-yl)aminocarbonyl]-4-(3,5-xylyl)piperazine] | superior antitumor activities to those of cisplatin | same or more excellent antitumor activities |  | 
 |  | COc1ccc(C)c(N2CCN(C(=O)Nc3cc(C)c(C)nc3OC)CC2)c1 [Example 121] | superior antitumor activities to those of cisplatin |  |  | 
 |  | COc1nc(C)c(C)cc1NC(=S)N1CCN(c2cccc(Cl)c2)CC1 [Example 126, 1-[(5,6-dimethyl-2-methoxypyridin-3-yl)aminothiocarbonyl]-4-(3-chlorophenyl) piperazine] | superior antitumor activities to those of cisplatin |  |  | 
 |  | COc1cc(OC)cc(N2CCN(C(=S)Nc3cc(C)c(C)nc3OC)CC2)c1 [Example 129, 1-[(5,6-dimethyl-2-methoxypyridin-3-yl)aminothiocarbonyl]-4-(3,5-dimethoxyphenyl)piperazine] | superior antitumor activities to those of cisplatin |  |  | 
 |  | C#CCNc1cccnc1N1CCN(C(=O)NCc2cc(CC)c(C)nc2OC)CC1 [Example 144, 1-[(5-ethyl-2-methoxy-6-methylpyridin-3-yl)methylaminocarbonyl]-4-[(3-propargylamino)pyridin-2-yl]piperazine] | superior antitumor activities to those of cisplatin |  |  | 

Compound | IC50 [1] [µg/mL] | IC50 [2] [µg/mL] | antitumor activities compared with cisplatin [3] | antitumor activities compared with mitomycin C [4] | LD50 (ICR mice; i.p.) | LD50 (ICR mice; p.o.)
CCc1cc(NC(=O)N2CCN(c3cccc(OC(C)=O)c3)CC2)c(OC)nc1C [Example 41, 1-[(5-ethyl-2-methoxy-6-methylpyridin-3-yl)aminocarbonyl]-4-(3-acetoxyphenyl)piperazine] | 1.4 (≈ 3.39 µM) | 2 (≈ 4.85 µM) | superior antitumor activities to those of cisplatin | same or more excellent antitumor activities |  | 
CCc1cc(NC(=S)N2CCN(c3ccccc3OC)CC2)c(OC)nc1C [Example 97, 1-[(5-ethyl-2-methoxy-6-methylpyridin-3-yl)aminothiocarbonyl]-4-(2-methoxyphenyl)piperazine] | 2 (≈ 4.99 µM) | 1.6 (≈ 3.99 µM) | superior antitumor activities to those of cisplatin |  | 1,100 | 
CCc1cc(NC(=S)N2CCN(c3cccc(Cl)c3)CC2)c(OC)nc1C [Example 98, 1-[(5-ethyl-2-methoxy-6-methylpyridin-3-yl)aminothiocarbonyl]-4-(3-chlorophenyl)piperazine] | 2 (≈ 4.94 µM) | 2.1 (≈ 5.19 µM) | superior antitumor activities to those of cisplatin |  | > 1,800 | > 2,000

Reference: patent US5780472A, “Piperazine derivatives and methods for the preparation thereof and compositions containing the same” (Samjin Pharmaceuticazl Co., Ltd., priority 1995, dated 1998)
